Results taken from patent US12357701B2, “Anti-HER2 biparatopic antibody-drug conjugates and methods of use” (Zymeworks BC Inc., priority 2018, dated 2025).

Key:
Type in all cases: in vivo, cynomolgus monkeys
[1] = Non-GLP repeat-dose toxicity study of v21252; details: after repeat administration of v21252 9 or 12 mg/kg; all below limit of quantitation except three animals
Description: (§1) All animals were evaluated for changes in clinical signs, food consumption, body weight, blood pressure, ECGs, respiration rates (visual), clinical pathology (hematology, clinical chemistry, coagulation, urinalysis), organ weights, and macroscopic/microscopic examination of tissues.

[2] = Single-dose pharmacokinetics/tolerability study of v17597 and v21252; details: all below LLOQ
Description: General tolerability was assessed with clinical observations, body weight, food consumption, and clinical pathology (hematology and clinical chemistry).
Serum concentrations of total antibody were analyzed using an Electrochemiluminescence assay with Meso Scale Discovery platform (ECL/MSD) with anti-pertuzumab antibody as the capture agent and anti-trastuzumab sulfo-TAG as the detection agent.
Serum samples were precipitated with acetonitrile/methanol (50:50, v/v) and supernatants were analyzed. The liquid chromatography system used was a reverse phase column with a gradient flow consisting of water/acetic acid (100/0.05, v/v) and acetonitrile.
Non-compartmental analysis of the serum sample bioanalytical results was used to derive PK parameters (maximum serum concentration [Cmax], terminal half-life [T1/2], clearance [CL] and apparent volume of distribution [Vss]).

[3] = GLP toxicity study of v21252
Description: as §1

CCC(C)[C@@H]([C@@H](CC(=O)N1CCC[C@H]1[C@H](OC)[C@@H](C)C(=O)NS(=O)(=O)c1ccc(N)cc1)OC)N(C)C(=O)[C@@H](NC(=O)[C@H](C(C)C)N(C)C)C(C)C (stereo in doubt) [Compound 9, (S)—N-((3R,4S,5R)-1-((S)-2-((1R,2R)-3-((4-aminophenyl)sulfonamido)-1-methoxy-2-methyl-3-oxopropyl)pyrrolidin-1-yl)-3-methoxy-5-methyl-1-oxoheptan-4-yl)-2-((S)-2-(dimethylamino)-3-methylbutanamido)-N,3-dimethylbutanamide]
payload (Compound 9) serum concentration [1]: < 0.500 ng/mL | toxin (Compound 9) serum concentration ([2]; after single dose of v17597 (3, 6 or 9 mg/kg)): < 5.00 ng/mL | toxin (Compound 9) serum concentration ([2]; after single dose of v21252 (9 or 12 mg/kg)): < 5.00 ng/mL | toxin (Compound 9) serum concentration ([3]; after repeat administrations of v21252, most concentrations below limit of quantitation): < 0.500 ng/mL | AUC(0-t) ([3]; male, cynomolgus monkey, serum, iv, 18 mg/kg): 125 ng·h/mL
